Experiment [1] has as its system corneal neovascularization induced by limbal deficiency. The experiment in a line: rat model of CN induced by de-epithelialization and limbal resection. The note with it: for corneal edema / corneal neovascularization / corneal re-epithelialization / corneal thickness: rat, limbal deficiency. Type of experiment: in vivo. The source says:
FIG. 1. Corneal de-epthelialization and limbal resection model treatment schemes.
Corneal neovascularization (CN) is a severe vision-threatening complication of OR.

The subject of experiment [2] is GR/MR balance. The experiment in a line: GR and MR expression in the cornea/limbus of rats with limbal deficiency. The experiment is classed as in vivo, rat. The source says: FIG. 4. Spironolactone up-regulates GR and the GR/MR balance in favor of GR pathway activation. The corneal de-epithelialization and limbal deficiency model induces a down regulation of GR genes at day 3 and 7, and is restored at day 14 when the cornea is healed. […] Spironolactone normalizes the GR/MR balance, favoring GR pathway activation.
Thus, spironolactone normalizes the GR/MR balance, favoring GR pathway activation.

The test system of experiment [3] is genes regulated in the cornea and limbus. As to the kind of experiment: full transcriptomic regulation in the cornea and limbus. Type of experiment: in vivo, rat. The note with it: cornea and limbus at 3 and 7 days. An excerpt: A full transcriptomic regulation induced in the cornea and limbus at 3 and 7 days after spironolactone systemic injection alone or with TA has been realized.

As to `CC(=O)S[C@@H]1CC2=CC(=O)CC[C@]2(C)[C@H]2CC[C@@]3(C)[C@@H](CC[C@@]34CCC(=O)O4)[C@H]12` [spironolactone, 17-hydroxy-7α-mercapto-3-oxo-17α-pregn-4-ene-21-carboxylic acid γ-lactone acetate], in experiment [1] (corneal sections at day 3), the “infiltration of ED1 positive inflammatory cells in corneal lesions” value is given as “reduced infiltration” and the “infiltration of IBA1-positive macrophages in corneal lesions” value is reported as “reduced infiltration”. In experiment [1], the corneal edema result is given as “decrease”, the corneal neovascularization result is listed as “inhibited”, the corneal re-epithelialization entry is reported as “improved” and the corneal thickness result is “decrease”. The “corneal re-epithelialization (corneal wound) delayed by the TA injection” value in experiment [1] (spironolactone given with TA injection) is listed as “improved”. For the same compound, the “GR expression in the cornea” value in experiment [2] (day 3 and 7) was “up regulates and normalizes”. In experiment [2] (rat, in vivo), the MR expression result is listed as “does not influence”. In addition, in experiment [3], the “genes up or down regulated” value was determined as 75 genes.

With `COC(=O)[C@@H]1CC2=CC(=O)CC[C@]2(C)[C@@]23O[C@@H]2C[C@@]2(C)[C@@H](CC[C@@]24CCC(=O)O4)[C@H]13` [eplerenone, Pregn-4-ene-7,21-dicarboxylic acid, 9,11-epoxy-17-hydroxy-3-oxo-,γ-lactone, methyl ester, (7α, 11α, 17β)], in experiment [1], the corneal edema entry was “decrease”, the corneal neovascularization entry is recorded as “inhibited”, the corneal re-epithelialization result is reported as “improved” and the corneal thickness entry was “decrease”.

The record behind these values is patent US20240366632A1, “METHODS FOR THE TREATMENT OF OCULAR ROSACEA” (INSTITUT NATIONAL DE LA SANTÉ ET DE LA RECHERCHE MÉDICALE, priority 2021, published 2024).
